Source: ChEMBL document CHEMBL5143643, “Development of disulfide-functionalized peptides covalently binding G protein-coupled receptors” (Bioorg Med Chem, 2022)
*1 amine or outer side, *2 acyl side, *3 side chain or, on linkers, in order; H or OH if unused. Where a SMILES comes first, the peptide text is derived from it. Cysteamine = C(CS[*:2])N[*:1]

Assays:
[1] = molecular target: T1, Neurotensin receptor type 1 (Homo sapiens, UniProt P30989); assay: Displacement of [3H]NT(8-13) from human NTSR1 F2.65C mutant expressed in HEK293 cell membranes by radioligand displacement assay; set-up: species or system Cell membrane
Target sequence in this assay (P30989 whole entry, looked up): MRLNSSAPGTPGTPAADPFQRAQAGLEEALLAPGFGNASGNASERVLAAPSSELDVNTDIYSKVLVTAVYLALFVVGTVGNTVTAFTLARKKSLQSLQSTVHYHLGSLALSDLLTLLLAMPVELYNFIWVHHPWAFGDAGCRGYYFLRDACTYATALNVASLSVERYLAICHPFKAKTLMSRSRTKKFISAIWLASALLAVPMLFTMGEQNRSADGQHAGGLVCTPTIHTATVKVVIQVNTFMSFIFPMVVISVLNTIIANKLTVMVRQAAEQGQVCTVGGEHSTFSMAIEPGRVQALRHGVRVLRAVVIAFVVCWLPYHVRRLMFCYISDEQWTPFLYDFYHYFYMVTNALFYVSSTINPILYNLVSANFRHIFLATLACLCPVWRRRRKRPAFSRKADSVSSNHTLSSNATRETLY

[2] = molecular target: T1, Neurotensin receptor type 1; assay: Displacement of [3H]neurotensin from human NTSR1 expressed in CHO cell membranes by radioligand depletion assay; set-up: species or system Cell membrane
Target sequence in this assay (P30989 whole entry): as the sequence (P30989 whole entry, looked up) above

[3] = molecular target: T1, Neurotensin receptor type 1; assay: Displacement of [3H]NT(8-13) from human NTSR1 F2.65C mutant expressed in HEK293 cell membranes assessed as amount of blocking at 1 uM incubated for 120 mins by radioligand depletion assay; conditions: Cell membrane
Target sequence in this assay (P30989 whole entry): as the sequence (P30989 whole entry, looked up) above

[4] = molecular target: Neurotensin receptor type 2 (Homo sapiens, UniProt O95665); assay: Displacement of [3H]NT(8-13) from human NTSR2 expressed in HEK293 cell membranes by radioligand displacement assay; set-up: species or system Cell membrane
Sequence of Neurotensin receptor type 2 (O95665 whole entry): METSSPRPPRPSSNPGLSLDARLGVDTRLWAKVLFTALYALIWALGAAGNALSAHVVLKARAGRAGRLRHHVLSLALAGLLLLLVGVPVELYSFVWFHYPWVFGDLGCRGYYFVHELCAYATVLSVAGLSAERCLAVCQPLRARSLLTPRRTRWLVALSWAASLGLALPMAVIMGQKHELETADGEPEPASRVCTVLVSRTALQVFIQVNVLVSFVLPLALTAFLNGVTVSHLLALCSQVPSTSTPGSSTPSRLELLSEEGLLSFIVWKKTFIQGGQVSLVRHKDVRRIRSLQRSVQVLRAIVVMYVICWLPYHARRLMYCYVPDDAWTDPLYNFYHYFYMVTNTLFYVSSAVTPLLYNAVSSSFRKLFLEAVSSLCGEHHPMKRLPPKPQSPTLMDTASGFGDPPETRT

Row | Ki [1] [nM] | Ki ([2]; cho) [nM] | Activity [3] [%] | Ki [4] [nM] | Ki [2] [nM] | SMILES
1 | 15 | 5.3 | 88 | 17 |  | CC(C)C[C@H](NC(=O)[C@@H](CCSSCCN)NC(=O)[C@H](Cc1ccc(O)cc1)NC(=O)[C@@H]1CCCN1C(=O)[C@H](CCCNC(=N)N)NC(=O)[C@@H](N)CCCNC(=N)N)C(=O)O
2 | 28 |  | 61 | 55 | 49 | CC(C)C[C@H](NC(=O)[C@H](CSSCCN)NC(=O)[C@H](Cc1ccc(O)cc1)NC(=O)[C@@H]1CCCN1C(=O)[C@H](CCCNC(=N)N)NC(=O)[C@@H](N)CCCNC(=N)N)C(=O)O
3 | 40 | 7 | -2 | 5.2 |  | CC[C@H](C)[C@H](NC(=O)[C@H](Cc1ccc(O)cc1)NC(=O)[C@@H]1CCCN1C(=O)[C@H](CCCNC(=N)N)NC(=O)[C@@H](N)CCCNC(=N)N)C(=O)N[C@@H](CC(C)C)C(=O)N[C@H](CCSSCCN)C(=O)O
4 | 51 |  | 6 | 4.2 | 2.4 | CC[C@H](C)[C@H](NC(=O)[C@H](Cc1ccc(O)cc1)NC(=O)[C@@H]1CCCN1C(=O)[C@H](CCCNC(=N)N)NC(=O)[C@@H](N)CCCNC(=N)N)C(=O)N[C@@H](CC(C)C)C(=O)N[C@@H](CSSCCN)C(=O)O (H-RRPYILC(Cysteamine)-OH)
